The record followed here is PubChem BioAssay AID1745844 (Carcinogenic Potency Database (CPDB), 2022).

For this data set, the system named is rodent lifetime carcinogenesis bioassay, tumor incidence TD50. As to the kind of experiment: chronic cancer bioassays in animals – CPDB, compiled studies (AID 1745844).
Where [1] appears, read: mouse, strain Swiss albino, males, in drinking water, site: lung, lesion: adenoma, dosed 93 weeks, study length 93 weeks.
Where [2] appears, read: mouse, strain Swiss albino, males, in drinking water, site: lung, lesion: several types, types named in the paper, dosed 93 weeks, study length 93 weeks.

Each structure is given as a SMILES string. The source made the active and inactive calls. How the calls were made is not given here.

Consider `C=CCNN`, for which the TD50 (in general, the dose at which the toxic effect under study appears in half of the subjects) was 163 mg/kg/day (mouse, strain Swiss albino, females, in drinking water, site: blood vessels, lesion: angioma, dosed 105 weeks, study length 105 weeks); 119 mg/kg/day (mouse, strain Swiss albino, females, in drinking water, site: blood vessels, lesion: several types, types named in the paper, dosed 105 weeks, study length 105 weeks); 234 mg/kg/day (mouse, strain Swiss albino, females, in drinking water, site: liver, lesion: several types, types named in the paper, dosed 105 weeks, study length 105 weeks); 96 mg/kg/day (mouse, strain Swiss albino, females, in drinking water, site: lung, lesion: adenocarcinoma, dosed 105 weeks, study length 105 weeks); 46.1 mg/kg/day (mouse, strain Swiss albino, females, in drinking water, site: lung, lesion: adenoma, dosed 105 weeks, study length 105 weeks); 38.4 mg/kg/day (mouse, strain Swiss albino, females, in drinking water, site: lung, lesion: several types, types named in the paper, dosed 105 weeks, study length 105 weeks). For the same compound, the TD50 (mouse, strain Swiss albino, males, in drinking water, site: liver, lesion: hepatoma, dosed 93 weeks, study length 93 weeks) was 274 mg/kg/day (inactive); the TD50 under setting [1] amounted to 28.9 mg/kg/day; the TD50 under setting [2] was 30.9 mg/kg/day.
Regarding `CCCNN`, the TD50 (mouse, strain Swiss albino, females, in drinking water, site: lung, lesion: adenocarcinoma, dosed 99 weeks, study length 99 weeks) was 109 mg/kg/day; the TD50 (mouse, strain Swiss albino, females, in drinking water, site: lung, lesion: adenoma, dosed 99 weeks, study length 99 weeks) came out at 42.7 mg/kg/day; the TD50 (mouse, strain Swiss albino, females, in drinking water, site: lung, lesion: several types, types named in the paper, dosed 99 weeks, study length 99 weeks) was 41.4 mg/kg/day; the TD50 (mouse, strain Swiss albino, males, in drinking water, site: liver, lesion: liver-cell carcinoma, dosed 93 weeks, study length 93 weeks) is 102 mg/kg/day (inactive); the TD50 (mouse, strain Swiss albino, males, in drinking water, site: liver, lesion: several types, types named in the paper, dosed 93 weeks, study length 93 weeks) was 80.8 mg/kg/day; the TD50 under setting [1] is 41.3 mg/kg/day. In addition, the TD50 under setting [2] was 50.5 mg/kg/day.
For `O=NN(c1ccccc1)c1ccccc1`, the TD50 runs as follows: (mouse, strain B6AKF1, females, oral dosing, site: any site (literature study), lesion: several types, types named in the paper, dosed 76 weeks, study length 76 weeks) 3260 mg/kg/day; (mouse, strain B6AKF1, females, oral dosing, site: lung, lesion: adenoma, dosed 76 weeks, study length 76 weeks) 1020 mg/kg/day; (mouse, strain B6C3F1, males, oral dosing, site: any site (literature study), lesion: several types, types named in the paper, dosed 76 weeks, study length 76 weeks) 897 mg/kg/day; (mouse, strain B6C3F1, males, oral dosing, site: liver, lesion: hepatoma, dosed 76 weeks, study length 76 weeks) 385 mg/kg/day; (mouse, strain B6C3F1, males, oral dosing, site: lung, lesion: adenoma, dosed 76 weeks, study length 76 weeks) 9670 mg/kg/day; (rat, strain CB, males, i.p., site: liver, lesion: hepatoma, dosed 26 weeks, study length 100 weeks) 18.9 mg/kg/day (inactive). For the same compound, the TD50 by setting is: (rat, strain Fischer 344, females, in feed, site: any site (literature study), lesion: several types, types named in the paper, dosed 100 weeks, study length 100 weeks) 159 mg/kg/day; (rat, strain Fischer 344, females, in feed, site: urinary bladder, lesion: transitional-cell carcinoma, dosed 100 weeks, study length 100 weeks) 116 mg/kg/day; (rat, strain Fischer 344, males, in feed, site: all sites, lesion: fibroma, dosed 100 weeks, study length 100 weeks) 537 mg/kg/day; (rat, strain Fischer 344, males, in feed, site: any site (literature study), lesion: several types, types named in the paper, dosed 100 weeks, study length 100 weeks) 136000 mg/kg/day; (rat, strain Fischer 344, males, in feed, site: liver, lesion: hepatocellular adenoma + hepatocellular carcinoma + neoplastic nodule, dosed 100 weeks, study length 100 weeks) 5450 mg/kg/day; (rat, strain Fischer 344, males, in feed, site: urinary bladder, lesion: transitional-cell carcinoma, dosed 100 weeks, study length 100 weeks) 299 mg/kg/day. The carcinogen call is “negative (inactive)” (mouse, strain B6C3F1, females, in feed, site: any site (literature study), lesion: several types, types named in the paper, dosed 98 weeks, study length 101 weeks) and “negative (inactive)” (mouse, strain B6C3F1, males, in feed, site: any site (literature study), lesion: several types, types named in the paper, dosed 101 weeks, study length 101 weeks).
Consider `Cc1ccc(C)c(C)c1`, for which the TD50 (rat, strain Sprague-Dawley, females, by gavage, site: any site (literature study), lesion: malignant tumor, dosed 104 weeks, study length 123 weeks) amounted to 14300 mg/kg/day; the TD50 (rat, strain Sprague-Dawley, males, by gavage, site: Zymbal's gland, lesion: carcinoma, dosed 104 weeks, study length 123 weeks) came out at 18000 mg/kg/day; the TD50 (rat, strain Sprague-Dawley, males, by gavage, site: any site (literature study), lesion: malignant tumor, dosed 104 weeks, study length 123 weeks) is 13900 mg/kg/day; the TD50 (rat, strain Sprague-Dawley, males, by gavage, site: any site (literature study), lesion: several types, types named in the paper, dosed 104 weeks, study length 123 weeks) came to 1940 mg/kg/day; the TD50 (rat, strain Sprague-Dawley, males, by gavage, site: ear duct, lesion: carcinoma, dosed 104 weeks, study length 123 weeks) is 18300 mg/kg/day; the TD50 (rat, strain Sprague-Dawley, males, by gavage, site: head, lesion: carcinoma, dosed 104 weeks, study length 123 weeks) is 4350 mg/kg/day. Further, the TD50 is, setting by setting: (rat, strain Sprague-Dawley, males, by gavage, site: nasal cavity, lesion: esthesioneuroepithelioma, dosed 104 weeks, study length 123 weeks) 18300 mg/kg/day; (rat, strain Sprague-Dawley, males, by gavage, site: oral cavity, lesion: carcinoma, dosed 104 weeks, study length 123 weeks) 18300 mg/kg/day.
On to `C=C/C=N/O`, for which the TD50 is, setting by setting: (rat, strain Fischer 344, females, in drinking water, site: liver, lesion: hepatocellular carcinoma, dosed 104 weeks, study length 129 weeks) 104 mg/kg/day; (rat, strain Fischer 344, females, in drinking water, site: liver, lesion: hyperplastic nodule, dosed 30 weeks, study length 123 weeks) 41.9 mg/kg/day; (rat, strain Fischer 344, females, in drinking water, site: liver, lesion: hyperplastic nodule, dosed 104 weeks, study length 129 weeks) 43.8 mg/kg/day; (rat, strain Fischer 344, females, in drinking water, site: liver, lesion: several types, types named in the paper, dosed 104 weeks, study length 129 weeks) 27.1 mg/kg/day; (rat, strain Fischer 344, males, in drinking water, site: liver, lesion: hepatocellular carcinoma, dosed 30 weeks, study length 123 weeks) 50.7 mg/kg/day; (rat, strain Fischer 344, males, in drinking water, site: liver, lesion: hepatocellular carcinoma, dosed 104 weeks, study length 128 weeks) 72.6 mg/kg/day. In addition, the TD50 is, setting by setting: (rat, strain Fischer 344, males, in drinking water, site: liver, lesion: hyperplastic nodule, dosed 30 weeks, study length 123 weeks) 29.3 mg/kg/day; (rat, strain Fischer 344, males, in drinking water, site: liver, lesion: hyperplastic nodule, dosed 104 weeks, study length 128 weeks) 64.9 mg/kg/day; (rat, strain Fischer 344, males, in drinking water, site: liver, lesion: several types, types named in the paper, dosed 30 weeks, study length 123 weeks) 16.4 mg/kg/day; (rat, strain Fischer 344, males, in drinking water, site: liver, lesion: several types, types named in the paper, dosed 104 weeks, study length 128 weeks) 30.4 mg/kg/day.
Consider `Clc1cccc(-c2cccc(Cl)c2)c1`, for which the TD50 (rat, strain Wistar, males, in feed, site: liver, lesion: hepatocellular carcinoma, dosed 116 weeks, study length 116 weeks) was 157 mg/kg/day.
Consider `CN(N=O)c1ccc(C=Cc2ccnc3ccccc23)cc1`, for which the TD50 is 0.468 mg/kg/day (rat, strain Fischer, females, in feed, site: liver, lesion: hyperplastic nodule, dosed 34 weeks, study length 52 weeks); 4.37 mg/kg/day (rat, strain Fischer, males, in feed, site: liver, lesion: carcinoma, dosed 34 weeks, study length 52 weeks); 1.38 mg/kg/day (rat, strain Fischer, males, in feed, site: liver, lesion: hyperplastic nodule, dosed 34 weeks, study length 52 weeks).
As to `NCC(=O)O`, the TD50 by setting is: (rat, strain F344/DuCrj, females, in drinking water, site: any site (literature study), lesion: several types, types named in the paper, dosed 108 weeks, study length 108 weeks) 7550 mg/kg/day; (rat, strain F344/DuCrj, females, in drinking water, site: kidney/pelvis, lesion: transitional-cell papilloma, dosed 108 weeks, study length 108 weeks) 25700 mg/kg/day; (rat, strain F344/DuCrj, females, in drinking water, site: liver, lesion: neoplastic nodule, dosed 108 weeks, study length 108 weeks) 157000 mg/kg/day; (rat, strain F344/DuCrj, females, in drinking water, site: uterus, lesion: endometrial stromal polyp, dosed 108 weeks, study length 108 weeks) 3100 mg/kg/day.
Turning to `O=CCCCC=O`, the TD50 runs as follows: (mouse, strain B6C3F1, females, inhaled, site: any site (literature study), lesion: several types, types named in the paper, dosed 104 weeks, study length 105 weeks) 3.08 mg/kg/day (inactive); (mouse, strain B6C3F1, females, inhaled, site: lung, lesion: adenocarcinoma, dosed 52 weeks, study length 52 weeks) 0.54 mg/kg/day (inactive); (mouse, strain B6C3F1, females, inhaled, site: lung, lesion: adenocarcinoma, dosed 78 weeks, study length 78 weeks) 0.347 mg/kg/day (inactive); (mouse, strain B6C3F1, females, inhaled, site: lung, lesion: alveolar/bronchiolar adenoma + alveolar/bronchiolar carcinoma, dosed 104 weeks, study length 105 weeks) 17.4 mg/kg/day; (mouse, strain B6C3F1, males, inhaled, site: lung, lesion: adenocarcinoma, dosed 78 weeks, study length 78 weeks) 1.14 mg/kg/day (inactive); (rat, strain Fischer 344, females, inhaled, site: any site (literature study), lesion: several types, types named in the paper, dosed 104 weeks, study length 104 weeks) 0.125 mg/kg/day (inactive). For the same compound, the TD50 (rat, strain Fischer 344, males, inhaled, site: any site (literature study), lesion: several types, types named in the paper, dosed 104 weeks, study length 104 weeks) was 0.239 mg/kg/day (inactive). Also, the carcinogen call (mouse, strain B6C3F1, females, inhaled, site: liver, lesion: one or several types, types not named, dosed 52 weeks, study length 52 weeks) is “negative (inactive)”; the carcinogen call (mouse, strain B6C3F1, females, inhaled, site: liver, lesion: one or several types, types not named, dosed 78 weeks, study length 78 weeks) is “negative (inactive)”; the carcinogen call (mouse, strain B6C3F1, males, inhaled, site: any site (literature study), lesion: several types, types named in the paper, dosed 104 weeks, study length 104 weeks) is “negative (inactive)”; the carcinogen call (mouse, strain B6C3F1, males, inhaled, site: liver, lesion: hepatocellular carcinoma, dosed 52 weeks, study length 52 weeks) is “negative (inactive)”; the carcinogen call (mouse, strain B6C3F1, males, inhaled, site: liver, lesion: hepatocellular carcinoma, dosed 78 weeks, study length 78 weeks) is “negative (inactive)”; the carcinogen call (mouse, strain B6C3F1, males, inhaled, site: lung, lesion: adenocarcinoma, dosed 52 weeks, study length 52 weeks) is “negative (inactive)”.
For the compound `C/C=C1/C[C@@H](C)[C@@](C)(O)C(=O)OC/C2=C/CN(C)CC[C@@H](OC1=O)C2=O`, the TD50 (rat, strain ACI, males, i.p., site: liver, lesion: liver-cell adenoma, dosed 56 weeks, study length 92 weeks) is 1.7 mg/kg/day.
Take `CC1CN(N=O)C(=O)NC1=O` (centres undefined): the carcinogen call is “negative (inactive)” (rat, strain MRC-Wistar, females, in drinking water, site: any site (literature study), lesion: several types, types named in the paper, dosed 52 weeks, study length 127 weeks); “negative (inactive)” (rat, strain MRC-Wistar, males, in drinking water, site: any site (literature study), lesion: several types, types named in the paper, dosed 52 weeks, study length 127 weeks); “negative (inactive)” (rat, strain MRC-Wistar, males, in drinking water, site: liver, lesion: one or several types, types not named, dosed 52 weeks, study length 127 weeks). In addition, for the setting “rat, strain MRC-Wistar, females, in drinking water, site: liver, lesion: several types, types named in the paper, dosed 52 weeks, study length 127 weeks”, the TD50 came to 31.2 mg/kg/day.
